Measurements reported in patent US20130267494A1, “1,4-OXAZEPANE DERIVATIVES” (priority 2010, published 2013).
Structures can show the parent of a compound that is named as a salt.

How the values were obtained:
Format in all cases: cell-based
[1] = molecular target: T1, human serotonin transporter (Homo sapiens, UniProt P31645); assay: Inhibitory action on human serotonin transporter ([3H]-5-hydroxytryptamine uptake in CHO cells); conditions: CHO, compound 1 μM; relative to inhibitory activity of 10 μM Paroxetine as 100%; read-out: inhibitory rate (%)
T1 construct: expressed in transfected cells
T1 sequence (P31645 whole entry): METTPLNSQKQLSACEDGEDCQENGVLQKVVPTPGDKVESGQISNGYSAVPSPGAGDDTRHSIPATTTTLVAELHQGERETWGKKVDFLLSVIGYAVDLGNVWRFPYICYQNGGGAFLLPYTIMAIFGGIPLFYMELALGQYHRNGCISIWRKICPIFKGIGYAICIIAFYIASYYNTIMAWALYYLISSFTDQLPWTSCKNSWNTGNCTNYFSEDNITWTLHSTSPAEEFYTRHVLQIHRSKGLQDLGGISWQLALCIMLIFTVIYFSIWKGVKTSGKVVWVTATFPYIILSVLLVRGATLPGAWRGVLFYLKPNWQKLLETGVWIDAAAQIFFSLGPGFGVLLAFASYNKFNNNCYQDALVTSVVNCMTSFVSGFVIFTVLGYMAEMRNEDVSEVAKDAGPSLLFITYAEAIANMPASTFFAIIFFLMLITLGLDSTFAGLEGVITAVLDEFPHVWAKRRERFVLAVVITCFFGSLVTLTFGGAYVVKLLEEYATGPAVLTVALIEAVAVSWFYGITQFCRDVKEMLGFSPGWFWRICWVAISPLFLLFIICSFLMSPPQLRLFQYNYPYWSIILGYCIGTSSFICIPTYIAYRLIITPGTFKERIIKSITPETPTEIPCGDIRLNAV
In short: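 CHO-K1 cells stably expressing human SERT, plated overnight, took up [3H]-5-HT (diluted to 200 nM before a 1:10 addition) for 20 min in HEPES-buffered saline with glucose and 0.5% BSA; radioactivity counted by scintillation. Compounds at 10 μM or 1 μM, activity expressed relative to 10 μM paroxetine set as 100%.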

[2] = molecular target: T2, human norepinephrine transporter (Homo sapiens, UniProt P23975); assay: Inhibitory action on human norepinephrine transporter ([3H]-norepinephrine uptake in CHO cells); conditions: CHO, compound 1 μM; relative to inhibitory activity of 10 μM DMI as 100%; read-out: inhibitory rate (%)
T2 construct: expressed in transfected cells
T2 sequence (P23975 whole entry): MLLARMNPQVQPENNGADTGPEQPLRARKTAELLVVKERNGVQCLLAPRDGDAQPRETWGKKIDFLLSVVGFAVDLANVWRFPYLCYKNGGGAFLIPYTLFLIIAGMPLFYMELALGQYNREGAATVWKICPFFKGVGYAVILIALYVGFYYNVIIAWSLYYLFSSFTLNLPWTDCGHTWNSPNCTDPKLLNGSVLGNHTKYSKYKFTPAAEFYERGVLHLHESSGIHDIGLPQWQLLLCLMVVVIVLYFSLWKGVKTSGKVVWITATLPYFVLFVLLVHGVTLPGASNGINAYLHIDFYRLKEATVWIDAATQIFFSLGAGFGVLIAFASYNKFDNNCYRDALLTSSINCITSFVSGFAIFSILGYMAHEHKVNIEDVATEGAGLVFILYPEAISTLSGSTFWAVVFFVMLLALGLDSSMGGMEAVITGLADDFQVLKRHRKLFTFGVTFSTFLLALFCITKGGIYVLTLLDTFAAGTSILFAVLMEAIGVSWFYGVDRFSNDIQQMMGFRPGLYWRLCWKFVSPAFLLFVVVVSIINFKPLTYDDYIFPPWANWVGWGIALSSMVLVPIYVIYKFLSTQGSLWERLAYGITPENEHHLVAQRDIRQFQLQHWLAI
In short: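 Stably transfected CHO-K1 cells plated overnight, then given test compound and [3H]-norepinephrine (20 nM final, from 200 nM) in HEPES-buffered saline with 0.5% BSA for 45 min. After PBS washes, retained radioactivity counted by scintillation. Inhibition at 10 μM or 1 μM compound expressed relative to 10 μM DMI as 100%.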

[3] = molecular target: T3, human dopamine transporter (Homo sapiens, UniProt Q01959); assay: Inhibitory action on human dopamine transporter ([3H]-dopamine uptake in CHO cells); conditions: CHO, compound 1 μM; relative to inhibitory activity of 100 μM Nomifensine as 100%; read-out: inhibitory rate (%)
T3 construct: expressed in transfected cells
T3 sequence (Q01959 whole entry): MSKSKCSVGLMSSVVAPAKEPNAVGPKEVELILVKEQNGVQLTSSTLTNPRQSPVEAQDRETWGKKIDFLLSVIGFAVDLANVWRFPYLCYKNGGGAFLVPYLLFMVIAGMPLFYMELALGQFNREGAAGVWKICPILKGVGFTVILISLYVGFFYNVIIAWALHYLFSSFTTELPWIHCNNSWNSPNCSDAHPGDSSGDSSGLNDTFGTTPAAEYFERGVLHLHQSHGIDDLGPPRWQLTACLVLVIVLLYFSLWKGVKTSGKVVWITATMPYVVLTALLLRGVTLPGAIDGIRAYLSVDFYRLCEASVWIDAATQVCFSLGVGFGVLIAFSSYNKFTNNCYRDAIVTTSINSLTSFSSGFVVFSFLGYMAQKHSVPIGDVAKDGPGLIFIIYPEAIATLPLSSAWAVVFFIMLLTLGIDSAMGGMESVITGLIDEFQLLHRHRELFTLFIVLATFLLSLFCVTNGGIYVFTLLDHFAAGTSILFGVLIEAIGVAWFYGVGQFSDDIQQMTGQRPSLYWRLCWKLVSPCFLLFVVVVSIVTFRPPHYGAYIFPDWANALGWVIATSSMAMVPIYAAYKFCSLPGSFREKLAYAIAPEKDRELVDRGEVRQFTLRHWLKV
In short: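 CHO-K1 cells stably expressing human dopamine transporter, exposed to compound at 10 μM or 1 μM in HEPES-buffered saline with 0.5% BSA. [3H]-dopamine uptake measured over 60 min by scintillation counting. Activity expressed relative to 100 μM nomifensine as 100%.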

| Structure (SMILES) | inhibition at 1 µM [1] | inhibition at 1 µM [2] | inhibition at 1 µM [3] |
| --- | --- | --- | --- |
| CS(=O)(=O)NC[C@H]1OCCNC[C@H]1c1ccc(Cl)c(Cl)c1 [Example 467, N-{[(6R,7S)-6-(3,4-dichlorophenyl)-1,4-oxazepan-7-yl]methyl}methanesulfonamide monohydrochloride] | 38% | 102% | 60% |
| O=S(=O)(NC[C@H]1OCCNC[C@H]1c1ccc(Cl)c(Cl)c1)C(F)F [Example 470, N-{[(6R,7S)-6-(3,4-dichloropheny))-1,4-oxazepan-7-yl]methyl}-1,1-difluoromethanesulfonamide monohydrochloride] | 66% | 103% | 91% |
| O=c1cccnn1C[C@H]1OCCNC[C@H]1c1ccc(Cl)c(Cl)c1 [Example 481, 2-{[(6R,7S)-6-(3,4-dichlorophenyl)-1,4-oxazepan-7-yl]methyl}pyridazin-3(2H)-one monohydrochloride] | 76% | 100% | 61% |
| OC[C@H]1OCCNC[C@@H]1c1ccc(Cl)c(Cl)c1 [Example 487, [(6S,7S)-6-(3,4-dichlorophenyl)-1,4-oxazepan-7-yl]methanol monohydrochloride] | 15% | 70% | 14% |
| OC[C@@H]1OCCNC[C@H]1c1ccc(Cl)c(Cl)c1 [Example 488, [(6R,7R)-6-(3,4-dichlorophenyl)-1,4-oxazepan-7-yl]methanol monohydrochloride] | 61% | 102% | 37% |
| OCC(O)(CO)[C@@H]1OCCNC[C@H]1c1ccc(Cl)c(Cl)c1 [Example 491, 2-[(6R,7R)-6-(3,4-dichlorophenyl)-1,4-oxazepan-7-yl]propane-1,2,3-triol monohydrochloride] | 77% | 100% | 77% |
| OCCOC[C@@H]1OCCNC[C@H]1c1ccc(Cl)c(Cl)c1 [Example 496, 2-{[(6R,7R)-6-(3,4-dichlorophenyl)-1,4-oxazepan-7-yl]methoxy}ethanol monohydrochloride] | 62% | 105% | 57% |
| O=C1NCCCN1C[C@H]1OCCNC[C@H]1c1ccc(Cl)c(Cl)c1 [Example 545, 1-{[(6R,7S)-6-(3,4-dichlorophenyl)-1,4-oxazepan-7-yl]methyl}tetrahydropyrimidin-2(1H)-one monohydrochloride] | 94% | 108% | 81% |
| O[C@@H]1CNCCO[C@H]1c1ccc(Cl)c(F)c1 [Example 552, (6R,7S)-7-(4-chloro-3-fluorophenyl)-1,4-oxazepan-6-ol monohydrochloride] | 14% | 107% | 1% |
| O=c1[nH]nc(-c2cccnc2O[C@@H]2CNCCO[C@H]2c2ccc(Cl)c(F)c2)[nH]1 [Example 558, 5-(2-{[(6R,7S)-7-(4-chloro-3-fluorophenyl)-1,4-oxazepan-6-yl]oxy}pyridin-3-yl)-2,4-dihydro-3H-1,2,4-triazol-3-one monohydrochloride] | 81% | 106% | 100% |
| Cc1nnc(-c2cccnc2O[C@@H]2CNCCO[C@H]2c2ccc(Cl)c(F)c2)[nH]1 [Example 568, (6R,7S)-7-(4-chloro-3-fluorophenyl)-6-{[3-(5-methyl-4H-1,2,4-triazol-3-yl)pyridin-2-yl]oxy}-1,4-oxazepane monohydrochloride] | 94% | 103% | 100% |
| CS(=O)(=O)CC1(O)CNCCOC1c1ccc(Cl)c(F)c1 (stereo not drawn) [Example 572, 7-(4-chloro-3-fluoro-phenyl)-6-[(methyl-sulfonyl)-methyl]-1,4-oxazepan-ol] | 95% | 103% | 62% |
| O=C(O)c1ccnn(C[C@@H]2CNCCO[C@H]2c2ccc(Cl)c(F)c2)c1=O [Example 597, 2-{[(6S, 7R)-7-(4-chloro-3-fluoro-phenyl)-1,4-oxazepan-6-yl]methyl}-3-oxo-2,3-dihydro-pyridazine-4-carboxylic acid] | 78% | 104% | 38% |

The next lines start with the values.

| inhibition at 1 µM [1] | inhibition at 1 µM [2] | inhibition at 1 µM [3] | Structure (SMILES) |
| --- | --- | --- | --- |
| 46% | 104% | 25% | O=C(CO)NC[C@@H]1OCCNC[C@H]1c1ccc(Cl)c(Cl)c1 [Example 507, N-{[(6R,7R)-6-(3,4-dichlorophenyl)-1,4-oxazepan-7-yl]methyl}-2-hydroxyacetamide monohydrochloride] |
| 82% | 104% | 53% | O=c1cccnn1C[C@@H]1OCCNC[C@H]1c1ccc(Cl)c(Cl)c1 [Example 515, 2-{[(6R,7R)-6-(3,4-dichlorophenyl)-1,4-oxazepan-7-yl]methyl}pyridazin-3(2H)-one monohydrochloride] |
| 97% | 104% | 98% | O=c1[nH]c(-c2cccnc2OC2CNCCOC2c2ccc(Cl)c(Cl)c2)no1 (stereo not drawn) [Example 525, 3-(2-{[(6R*,7S*)-7-(3,4-dichlorophenyl)-1,4-oxazepan-yl]oxy}pyridin-3-yl)-1,2,4-oxadiazol-5(4H)-one monohydrochloride (retention time long)] |
| 97% | 109% | 46% | O=c1[nH]nc(-c2cccn(C[C@@H]3CNCCO[C@H]3c3ccc(Cl)c(F)c3)c2=O)o1 [Example 550, 1-{[(6S,7R)-7-(4-chloro-3-fluorophenyl)-1,4-oxazepan-6-yl]methyl}-3-(5-oxo-4,5-dihydro-1,3,4-oxadiazol-2-yl)pyridin-2(1H)-one monohydrochloride] |
| 28% | 99% | 68% | OC[C@H](O)[C@H]1OCCNC[C@H]1c1ccc(Cl)c(Cl)c1 [Example 578, (1S)-1-[(6R, 7S)-6-(3,4-dichloro-phenyl)-1,4-oxazepan-7-yl]ethane-1,2-diol] |
| 61% | 96% | 49% | OC[C@@H](O)[C@H]1OCCNC[C@H]1c1ccc(Cl)c(Cl)c1 [Example 579, (1R)-1-[(6R, 7S)-6-(3,4-dichloro-phenyl)-1,4-oxazepan-7-yl]ethane-1,2-diol] |
